Data taken from patent US20060047171A1, “Catalytic hydrogenation of nitriles to produce capsaicinoid derivatives and amine compounds, and methods for purifying and obtaining the polymorphs thereof” (priority 2003, published 2006).
“Also recorded” adds a separate entry of the source. Read-outs that look alike come from different tables or passages of the source.

Assays:
[1] = system: tail flick response to radiant heat; conditions: cited from earlier work; for Inhibition (%): mice
[2] = system: yeast induced hyperalgesia; test: Randall-Selitto test; type: in vivo, rat; conditions: rats, pain threshold of yeast-injected foot
Method: Randall-Selitto Test was carried out by following the method described in Arch. Int.
Male albino rats (120-170 g) of the Charles River Sprague-Dawley strain are used. Inflammation is produced by the injection of 0.1 mL of a 20% suspension of Brewer's yeast into the plantar surface of the rat's hind foot.
The pain threshold is measured as the pressure in mm Hg required to induce the desired response (a sharp audible squeak and/or struggle) when the pressure is applied to the foot. Air pressure from an air line is admitted through a needle valve to a 20 mL glass syringe and to a pressure gauge connected by a T-tube. The syringe is mounted with the plunger downward to which is connected a short bullet-shaped Teflon peg. The pressure is applied to the foot of the rat at the rate of 10 mmHg per second. Drug is given 2 hours after the yeast injection. Two hours after the drug administration, threshold response is determined.
The analgesic activity was determined in terms of the percentage of inhibition of response: Inhibition (%)=(TTG−TCG)/TCG×100, where TTG is the Threshold of Treated Group, and TCG is the Threshold of the Control Group.

[3] = Solubility curve / metastable zone width in methanol/water (1:1.25, v/v); type: physicochemical
Method: A standard procedure to determine the width of the metastable zone was used to determine the solubility curves of DA-5018 in methanol/water (1:1.25, v/v). In this procedure, DA-5018 (2.0 g) was suspended in 15 mL (7.5 vol) of methanol/water (1:1.25, v/v) and heated until all solids were dissolved (approximately 55° C.). The resulting solution was then very slowly cooled at a fixed rate of 0.2° C./min and the nucleation temperature recorded. The mixture was slowly reheated and the temperature of complete dissolution recorded. The solution was then iteratively diluted with a known volume of solvent and the nucleation as well as the dissolution points recorded at gradually lower concentrations to provide additional data points on the saturation curve as well as on the solubility curve. By definition, for a given concentration, the distance between the solubility curve and the saturation curve provides the metastable zone width (MSZW), in which crystal growth can be achieved upon careful seeding and controlled cooling, antisolvent addition, evaporation or pH adjustment, depending on the chosen crystallization conditions. Such a protocol is often crucial in maximizing crystal growth and curbing spontaneous, secondary nucleation that leads to uncontrolled crystallization.

[4] = Qualitative solubility of DA-5018 in common solvents; type: physicochemical
Method: In order to show which solvents or solvent/antisolvent combinations are appropriate for crystallization studies, the solubility of DA-5018 in twelve solvents was qualitatively evaluated on a 500 mg-scale. In these experiments, DA-5018 was suspended in 5 volumes of the appropriate solvent and stirred at ambient temperature, then incrementally heated until a complete solubilization was achieved.

[5] = Hygroscopicity by dynamic vapor sorption (DVS); type: physicochemical; conditions: for hygroscopicity (in words): DVS, conditions up to 90% RH
Method: Dynamic vapor sorption analysis (DVS) was at times performed on the sample “as is”. Samples were placed in sample pan and underwent a 2-hour drying in a dry nitrogen stream. The samples were then analyzed under the following conditions:
Isothermal Sequence: • Adsorption: 10-90% RH; step size 10% • Desorption: 85-0% RH; step size 10%
Each RH point was obtained after the weight loss curve reached an asymptote. After the isotherm was complete, the sample was heated to 80° C. until the weight loss curve reached an asymptote or for 4 hours maximum.
Hygroscopicity studies were conducted by DVS on both the original Form I (FIG. 4) and the thermally converted Form II (FIG. 5) of DA-5018. […] In an attempt to further evaluate the physical form of the dihydrate, a second sample of DA-5018 was converted to the dihydrate by exposing the material to 85% RH overnight in the DVS instrument.

[6] = Thermal stress experiments (DSC and XRPD), interconversion of forms; type: physicochemical
Method: To further evaluate these observations, DSC thermograms were obtained for select compounds at various ramping rates to evaluate interconversion of forms, as shown in FIGS. 2(a)-2(c) and 3(a)-3(c). FIGS. 2(a)-2(c) show the conversion of Form I to Form II. The conversion is most readily observed in FIG. 2(a), as conversion was more difficult to observe at the faster ramp rates. […] Additionally, isothermal heating experiments were performed with evaluation by DSC and XRPD to confirm any change of form, as shown in FIGS. 2(d)-2(f) and 3(d)-(f) and Table 3. FIGS. 2(e) and 3(e) show the original XRPD for Forms I and IV, respectively, while FIGS. 2(f) and 3(f) show the XRPD of Form II, formed after thermal conversion.

[7] = system: adjuvant induced hyperalgesia; conditions: 5 mg/Kg; rats; DA-5018 perorally two hours before tail-pinch testing; cited from earlier work

Molecule: 3-(3,4-Dimethylphenyl)acrylonitrile [Example 1]
- Inhibition (%) ([1]; 0.5 mg/Kg s. c.): 50%
- Inhibition (%) ([1]; 1.0 mg/Kg s. c.): 70%

Molecule: CC(=O)Oc1ccccc1C(=O)O [Aspirin]
- Inhibition (%) ([2]; 100 mg/Kg s. c.): 80.1%
- Inhibition (%) ([1]; 100 mg/Kg p. o.): 0%

Molecule: COc1cc(CNC(=O)CCCC/C=C/C(C)C)ccc1O [Capsaicin, trans-8-methyl-N-vanillyl-6-nonenamide]
- Inhibition (%) ([1]; 25 mg/Kg, route not given): 90%

Molecule: COc1cc(CC(=O)NCCCc2ccc(C)c(C)c2)ccc1OCCN [DA-5018, 2-[4-(2-aminoethoxy)-3-methoxyphenyl]-N-[3-(3,4-dimethylphenyl)propyl]acetamide]
- Nucleation Temperature (° C.) ([3]; 2.0 g DA-5018 in 15 mL methanol/water (1:1.25, v/v), cooled at 0.2° C./min): 39.1 °C
- Nucleation Temperature (° C.) ([3]; 2.0 g DA-5018 in 20 mL methanol/water (1:1.25, v/v)): 34.6 °C
- Nucleation Temperature (° C.) ([3]; 2.0 g DA-5018 in 25 mL methanol/water (1:1.25, v/v)): 34.5 °C
- Nucleation Temperature (° C.) ([3]; 2.0 g DA-5018 in 30 mL methanol/water (1:1.25, v/v)): 34.2 °C
- Inhibition (%) ([2]; 5 mg/Kg p. o.): 247.4%
- solubility (in words) ([4]; MEK, MIBK, EtOAc, IPAc and acetonitrile): sparingly soluble
- solubility (in words) ([4]; methanol at 50° C.): freely soluble
- solubility (in words) ([4]; methyl tert-butyl ether (MTBE), even at reflux): limited solubility
- DA-5018 Solubility Trend ([4]; ranking of solvents, 500 mg-scale, 5 volumes of solvent, ambient temperature then incrementally heated): Acetone >> Methanol > THF > Ethanol, 1-Propanol > 2-; also recorded: Propanol> MEK > MIBK > CH3CN, EtOAc, IPAc >> MTBE >>> Water

Molecule: COc1cc(CC(=O)NCCCc2ccc(C)c(C)c2)ccc1OCCN [Form I, 2-[4-(2-aminoethoxy)-3-methoxyphenyl]-N-[3-(3,4-dimethylphenyl)propyl]acetamide]
- hygroscopicity (in words) [5]: propensity to absorb moisture
- relative humidity at which moisture is taken up ([5]; less crystalline, or amorphous, samples): approximately 30 % RH
- conversion of form under thermal conditions (in words) ([6]; 10 minutes of isothermal heating near melting point, 105° C.): convert to Form II

Molecule: COc1cc(CC(=O)NCCCc2ccc(C)c(C)c2)ccc1OCCN [Form II, 2-[4-(2-aminoethoxy)-3-methoxyphenyl]-N-[3-(3,4-dimethylphenyl)propyl]acetamide]
- moisture retention upon desorption (in words) ([5]; DVS desorption): did not retain moisture upon desorption
- hygroscopicity (in words) [5]: non-hygroscopic; also recorded: no appreciable hygroscopicity

Molecule: COc1cc(CC(=O)NCCCc2ccc(C)c(C)c2)ccc1OCCN [Form III, 2-[4-(2-aminoethoxy)-3-methoxyphenyl]-N-[3-(3,4-dimethylphenyl)propyl]acetamide]
- relative humidity to which the dihydrate is stable upon desorption ([5]; DVS desorption): ≥ 30 % RH

Molecule: COc1cc(CC(=O)NCCCc2ccc(C)c(C)c2)ccc1OCCN [Form IV, 2-[4-(2-aminoethoxy)-3-methoxyphenyl]-N-[3-(3,4-dimethylphenyl)propyl]acetamide]
- conversion of form under thermal stress / melt (in words) ([6]; DSC at various ramping rates, melt): conversion of Form IV to Form II

Molecule: CN1CC[C@]23c4c5ccc(O)c4O[C@H]2[C@@H](O)C=C[C@H]3[C@H]1C5 [Morphine]
- Inhibition (%) ([2]; 3 mg/Kg s. c.): 391.7%
- activity in the tail flick test (in words) ([1]; mouse, in vivo): active

Molecule: CCCCCCCC/C=C\CCCCCCCC(=O)NCc1ccc(OCCN)c(OC)c1 [NE-21610]
- Inhibition (%) ([1]; 200 mg/Kg p. o.): 50%

Molecule: COc1ccc2cc([C@H](C)C(=O)O)ccc2c1 [Naproxen]
- Analgesic activity (%) [7]: 28.6%

Molecule: CN1C(C(=O)Nc2ccccn2)=C(O)c2ccccc2S1(=O)=O [Piroxicam]
- Inhibition (%) ([1]; 100 mg/Kg p. o.): 0%
